What was measured:
Pseudomonas aeruginosa [1] = assay: Antibacterial activity against Pseudomonas aeruginosa ATCC 10145 assessed as growth inhibition after 24 to 48 hrs by kirby-bauer disc diffusion method; assay type: functional; also: test concentration or dose not given here
Escherichia coli = assay: Antibacterial activity against Escherichia coli ATCC 11775 assessed as growth inhibition after 24 to 48 hrs by kirby-bauer disc diffusion method; assay type: functional, DSM 30083 = JCM 1649; also: test concentration or dose not given here
Staphylococcus aureus [2] = assay: Antibacterial activity against Staphylococcus aureus ATCC 12600 assessed as growth inhibition after 24 to 48 hrs by kirby-bauer disc diffusion method; assay type: functional; also: test concentration or dose not given here
HepG2 = assay: Cytotoxicity against human HepG2 cells assessed as cell survival after 48 hrs by SRB assay; assay type: functional, cell-based; settings: HepG2, 48 h
MCF7 = assay: Cytotoxicity against human MCF7 cells assessed as cell survival after 48 hrs by SRB assay; assay type: functional, cell-based; settings: MCF7, 48 h
Bacillus subtilis = assay: Antibacterial activity against Bacillus subtilis ATCC 6051 assessed as growth inhibition after 24 to 48 hrs by kirby-bauer disc diffusion method; assay type: functional; also: test concentration or dose not given here
Staphylococcus aureus [3] = assay: Antibacterial activity against Staphylococcus aureus ATCC 12600 assessed as growth inhibition by broth microdilution method; assay type: functional
Pseudomonas aeruginosa [4] = assay: Antibacterial activity against Pseudomonas aeruginosa ATCC 10145 assessed as growth inhibition by broth microdilution method; assay type: functional

Compound | diameter of the inhibition zone (DIZ) (Pseudomonas aeruginosa [1]) | diameter of the inhibition zone (DIZ) (Escherichia coli) | diameter of the inhibition zone (DIZ) (Staphylococcus aureus [2]) | IC50 (HepG2) | IC50 (MCF7) | diameter of the inhibition zone (DIZ) (Bacillus subtilis) | MIC (Staphylococcus aureus [3]) | MIC (Pseudomonas aeruginosa [4])
COc1cc(-c2nc3sc4c(c3c(=O)n2-c2nc3cc(C)ccc3s2)CCCC4)cc(OC)c1OC | 12 mm | 12 mm | 14 mm | > 192 µM | 65.6 µM | 11 mm | – | –
COc1cc(-c2nc3sc4c(c3c(=O)n2C(N)=S)CCCC4)cc(OC)c1OC | 13 mm | 14 mm | 12 mm | > 232 µM | 77.6 µM | 12 mm | – | –
COc1cc(-c2nc3sc4c(c3c(=O)n2C(N)=O)CCCC4)cc(OC)c1OC | 17 mm | 16 mm | 16 mm | 25.8 µM | 26.2 µM | 16 mm | – | –
COc1cc(-c2nc3sc4c(c3c(=O)n2C(=O)NO)CCCC4)cc(OC)c1OC | 13 mm | 14 mm | 12 mm | 14.4 µM | 71.2 µM | 13 mm | – | –
COc1cc(-c2nc3sc4c(c3c(=O)n2-c2ccc(C(=O)O)cc2)CCCC4)cc(OC)c1OC | 10 mm | 10 mm | 11 mm | 29.6 µM | > 203 µM | 12 mm | – | –
COc1cc(-c2nc3sc4c(c3c(=O)n2-c2ccc(S(N)(=O)=O)cc2)CCCC4)cc(OC)c1OC | 13 mm | 12 mm | 9 mm | > 190 µM | 37.1 µM | 14 mm | – | –
COc1cc(-c2nc3sc4c(c3c(=O)n2C(Cc2ccccc2)C(=O)O)CCCC4)cc(OC)c1OC (configuration not stated) | 13 mm | 13 mm | 10 mm | 19.4 µM | 50.1 µM | 12 mm | – | –
COc1cc(-c2nc3sc4c(c3c(=O)n2C(Cc2cc3ccccc3[nH]2)C(=O)O)CCCC4)cc(OC)c1OC (configuration not stated) | 0 mm | 0 mm | 0 mm | 30.9 µM | > 179 µM | 0 mm | – | –
COc1cc(-c2nc3sc4c(c3c(=O)n2C2CONC2=O)CCCC4)cc(OC)c1OC (configuration not stated) | 14 mm | 17 mm | 15 mm | 24.9 µM | 54.9 µM | 15 mm | – | –
COc1cc(-c2nc3sc4c(c3c(=O)n2-c2cc(=O)[nH]c(=O)[nH]2)CCCC4)cc(OC)c1OC | 14 mm | 14 mm | 11 mm | 86.4 µM | 83.3 µM | 11 mm | – | –
COc1cc(-c2nc3sc4c(c3c(=O)n2-c2nc3ccccc3s2)CCCC4)cc(OC)c1OC | 15 mm | 15 mm | 14 mm | 5.14 µM | 11.5 µM | 13 mm | – | –
COc1cc(-c2nc3sc4c(c3c(=O)n2-c2nc3cc([N+](=O)[O-])ccc3s2)CCCC4)cc(OC)c1OC | 14 mm | 15 mm | 15 mm | 36.9 µM | 21.6 µM | 14 mm | – | –
NC(=S)n1c(/C=C/c2ccccc2)nc2sc3c(c2c1=O)CCCC3 | 13 mm | 13 mm | 14 mm | 17.7 µM | 10.6 µM | 13 mm | – | –
NC(=O)n1c(/C=C/c2ccccc2)nc2sc3c(c2c1=O)CCCC3 | 15 mm | 14 mm | 16 mm | 18.5 µM | 13.4 µM | 14 mm | – | –
O=C(NO)n1c(/C=C/c2ccccc2)nc2sc3c(c2c1=O)CCCC3 | 14 mm | 13 mm | 15 mm | 52 µM | 23.9 µM | 12 mm | – | –
O=C(O)c1ccc(-n2c(/C=C/c3ccccc3)nc3sc4c(c3c2=O)CCCC4)cc1 | 14 mm | 16 mm | 19 mm | 36.9 µM | 45.3 µM | 14 mm | – | –

Compound | diameter of the inhibition zone (DIZ) (Pseudomonas aeruginosa [1]) | diameter of the inhibition zone (DIZ) (Escherichia coli) | diameter of the inhibition zone (DIZ) (Staphylococcus aureus [2]) | IC50 (HepG2) | IC50 (MCF7) | diameter of the inhibition zone (DIZ) (Bacillus subtilis) | MIC (Staphylococcus aureus [3]) | MIC (Pseudomonas aeruginosa [4])
NS(=O)(=O)c1ccc(-n2c(/C=C/c3ccccc3)nc3sc4c(c3c2=O)CCCC4)cc1 | 15 mm | 15 mm | 14 mm | 1.29 µM | 0.43 µM | 14 mm | – | –
O=C(O)C(Cc1ccccc1)n1c(/C=C/c2ccccc2)nc2sc3c(c2c1=O)CCCC3 (configuration not stated) | 14 mm | 14 mm | 16 mm | 31.5 µM | 45.3 µM | 13 mm | – | –
O=C(O)C(Cc1cc2ccccc2[nH]1)n1c(/C=C/c2ccccc2)nc2sc3c(c2c1=O)CCCC3 (configuration not stated) | 0 mm | 0 mm | 0 mm | 29.7 µM | > 202 µM | 0 mm | – | –
O=C1NOCC1n1c(/C=C/c2ccccc2)nc2sc3c(c2c1=O)CCCC3 (configuration not stated) | 16 mm | 15 mm | 19 mm | 6.86 µM | 39.4 µM | 15 mm | – | –
O=c1cc(-n2c(/C=C/c3ccccc3)nc3sc4c(c3c2=O)CCCC4)[nH]c(=O)[nH]1 | 15 mm | 15 mm | 18 mm | 67.2 µM | 11.2 µM | 16 mm | – | –
O=c1c2c3c(sc2nc(/C=C/c2ccccc2)n1-c1nc2ccccc2s1)CCCC3 | 14 mm | 13 mm | 16 mm | 10.6 µM | 4.3 µM | 13 mm | – | –
Cc1ccc2sc(-n3c(/C=C/c4ccccc4)nc4sc5c(c4c3=O)CCCC5)nc2c1 | 14 mm | 14 mm | 16 mm | 36.7 µM | 15.8 µM | 15 mm | – | –
O=c1c2c3c(sc2nc(/C=C/c2ccccc2)n1-c1nc2cc([N+](=O)[O-])ccc2s1)CCCC3 | 15 mm | 14 mm | 15 mm | 10.3 µM | 1.23 µM | 14 mm | – | –
O=c1[nH]c(/C=C/c2ccccc2)nc2sc3c(c12)CCCC3 | 0 mm | 0 mm | 0 mm | 12 µM | 28.2 µM | 0 mm | – | –
O=c1[nH]c(/C=C/c2ccccc2[N+](=O)[O-])nc2sc3c(c12)CCCC3 | 0 mm | 10 mm | 0 mm | 11.9 µM | 11.9 µM | 0 mm | – | –
C/C(=C\c1ccccc1)c1nc2sc3c(c2c(=O)[nH]1)CCCC3 | 0 mm | 0 mm | 0 mm | 33.2 µM | 24.8 µM | 0 mm | – | –
COc1cc(-c2nc(NC(=O)NO)c3c4c(sc3n2)CCCC4)cc(OC)c1OC | 0 mm | 0 mm | 0 mm | 2.32 µM | 14.2 µM | 0 mm | – | –
O=C(NO)Nc1nc(/C=C/c2ccccc2)nc2sc3c(c12)CCCC3 | 12 mm | 10 mm | 10 mm | 3.27 µM | 6.54 µM | 11 mm | – | –
Cc1c2ccc(N)cc2nc2cc(Nc3nc(/C=C/c4ccccc4)nc4sc5c(c34)CCCC5)ccc12 | 12 mm | 12 mm | 21 mm | 1.36 µM | 0.58 µM | 20 mm | – | –
CC1(C)S[C@@H]2[C@H](NC(=O)[C@H](N)c3ccccc3)C(=O)N2[C@H]1C(=O)O [AMPICILLIN] | 17 mm | 22 mm | 18 mm | – | – | 20 mm | 48 µg/mL | 56 µg/mL
COc1cccc2c1C(=O)c1c(O)c3c(c(O)c1C2=O)C[C@@](O)(C(=O)CO)C[C@@H]3O[C@H]1C[C@H](N)[C@H](O)[C@H](C)O1 [DOXORUBICIN] | – | – | – | 7.36 µM | – | – | – | –

Reference: ChEMBL document CHEMBL2401715, “Synthesis, antitumor and antibacterial activities of some novel tetrahydrobenzo[4,5]thieno[2,3-d]pyrimidine derivatives” (Eur J Med Chem, 2013)
